Literature values, collected in patent US20140227392A1, “BEER AND RELEVANT PRODUCTION METHOD” (FARCHIONI OLII - S.P.A., priority 2011, published 2014).

Conditions: compared with its precursor daidzein

For `Oc1ccc([C@H]2COc3cc(O)ccc3C2)cc1` [S-(−) equol], which antioxidant activity is on record?
The antioxidant activity was “significantly greater in antioxidant activity than its precursor”.
